From US5208344A, “Naphthalenepropionic acid derivatives as anti-inflammatory/antiallergic agents” (American Home Products Corporation, priority 1991, dated 1993)
Structures can show the parent of a compound that is named as a salt.

Assays:
[1] = tested on: ovalbumin-induced bronchoconstriction; test: inhibition of antigen (ovalbumin)-induced bronchoconstriction in anesthetized guinea pigs; type: in vivo; settings: orally administered 4 hours before induction, guinea pig, 240 min
Description: The compounds of the invention are tested to measure their in vivo ability to inhibit the bronchoconstriction induced in anesthetized guinea pigs by exogenously administered antigen.
Male Hartley guinea pigs (400-700 gm) are sensitized three weeks prior to antigen (ovalbumin-OA) challenge as follows: each guinea pig is given two intramuscular injections--0.35 ml of Grade V OA, 50 mg/ml, into each hindlimb.
Guinea pigs, fasted overnight but allowed water adlibitum, are anesthetized with 1.2 g/kg of urethane (intraperitoneal). Supplemental does of […] of urethane are administered intraperitoneally as needed. One carotid artery and one jugular vein are cannulated to allow for the monitoring of blood pressure and the administration of drugs, respectively. A duodenal cannula is inserted for intraduodenal dosing studies. The trachea of each animal is cannulated and connected to a Harvard respirator. […] Respiratory overflow pressure is measured from a side arm off the tracheal cannula which is connected via a Gould or Beckman pressure transducer to a suitable strip chart recorder. […]
Test compounds are administered intravenously, perorally, or intraduodenally at appropriate times prior to OA challenge. […] Control experiments are used to determine the effects of solvents on the measured parameters, and test data is corrected for any significant solvent effects.
Bronchoconstriction is assessed as increases in respiratory overflow pressure (cm H2 O). Changes in blood pressure (mm Hg) are also recorded.
Test compound-induced changes in the respiratory overflow pressure are assessed as percent changes from control experiments. […] The net change in overflow pressure is measured 5 minutes after antigen challenge and is calculated as follows. […] The percent change value for the drug treated group versus the control group is calculated as follows: […]

cyclooxygenase = test: inhibition of synthesis of cyclooxygenase products TxB2 and PGE2 (rat polymorphonuclear leukocytes); type: cell-based; settings: 10 μM, rat PMN, negative = potentiation of PGE2 synthesis
Summary of the method: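 Glycogen-elicited peritoneal PMN from female Wistar rats, 2×10^7 cells/ml in HBSS with Ca^++, Mg^++ and 10 mM L-cysteine, preincubated with compound 10 min at 37° C. Stimulated 10 min with A23187 (10 μM) plus 0.5 μM [14C] arachidonic acid; TxB2 and PGE2 quantified by TLC, autoradiography and scintillation counting.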

5-lipoxygenase = target: T1, 5-lipoxygenase (Rattus norvegicus, UniProt P12527); test: inhibition of 5-HETE synthesis by rat glycogen elicited polymorphonuclear leukocytes; type: cell-based; settings: 10 μM, rat PMN, negative = potentiation of 5-HETE synthesis
T1 construct: Peritoneal PMN are obtained from female Wistar rats (150-250 g); endogenous in cells; host or cells: rat glycogen-elicited peritoneal polymorphonuclear leukocytes, intact
T1 sequence (P12527 1-673): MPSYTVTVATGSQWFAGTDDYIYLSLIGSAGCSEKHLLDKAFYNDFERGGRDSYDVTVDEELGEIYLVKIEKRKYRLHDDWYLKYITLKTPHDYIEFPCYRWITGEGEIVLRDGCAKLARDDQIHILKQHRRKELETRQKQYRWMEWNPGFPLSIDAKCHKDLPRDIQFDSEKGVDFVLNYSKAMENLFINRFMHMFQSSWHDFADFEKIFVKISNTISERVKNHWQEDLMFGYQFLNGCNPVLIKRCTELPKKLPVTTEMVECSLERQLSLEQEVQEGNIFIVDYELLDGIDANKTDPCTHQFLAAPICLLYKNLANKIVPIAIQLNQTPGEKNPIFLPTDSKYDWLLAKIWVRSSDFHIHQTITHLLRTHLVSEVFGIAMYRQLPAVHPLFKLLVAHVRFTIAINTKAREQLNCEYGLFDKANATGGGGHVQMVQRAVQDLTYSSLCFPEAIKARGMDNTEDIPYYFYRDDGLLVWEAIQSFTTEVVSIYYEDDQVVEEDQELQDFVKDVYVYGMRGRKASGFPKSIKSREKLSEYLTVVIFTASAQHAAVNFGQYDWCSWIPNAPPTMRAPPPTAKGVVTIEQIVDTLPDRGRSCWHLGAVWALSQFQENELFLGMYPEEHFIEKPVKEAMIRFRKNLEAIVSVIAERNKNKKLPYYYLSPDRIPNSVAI
Summary of the method: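 Peritoneal PMN from female Wistar rats given i.p. glycogen 24 h earlier were preincubated with compound for 10 min at 37° C (2×10^7 cells/ml, 10 mM L-cysteine). They were then stimulated 10 min with 10 μM A23187 plus 0.5 μM [14C]arachidonic acid. 5-HETE was separated by TLC and quantified by scintillation.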

[2] = tested on: acute gastroirritation induced by naproxen; test: cytoprotective activity against NSAID (naproxen)-induced acute gastroirritation in rats; type: in vivo, rat; settings: drug 100 mg/kg peroral 1 hour before naproxen 25 mg/kg
Text: The assay of Example 44 is also used to measure the cytoprotective activity of the compounds against acute gastroirritation induced by a nonsteroidal anti-inflammatory drug (NSAID).

% Inhibition of 5-LO (as 5-HETE) (5-lipoxygenase; sodium salt) [%]	inhibition at 10 µM (5-lipoxygenase; read-out: % Inhibition of 5-LO (as 5-HETE)) [%]	SMILES	ED50 (ovalbumin-induced bronchoconstriction) ([1]; sodium salt) [mg/kg]	% Inhibition of CO (as PGE2) (cyclooxygenase; sodium salt) [%]	ED50 (ovalbumin-induced bronchoconstriction) [1] [mg/kg]	% of Rats With Lesions [2] [%]	Comments (protection) [2]	% Inhibition of CO (as PGE2) (cyclooxygenase) [%]
100		C[C@H](C(=O)O)c1ccc2cc(OCc3ccc4ccccc4n3)ccc2c1 [Example 16, S-(+)-α-Methyl-6-(2-quinolinylmethoxy)-2-naphthaleneacetic acid, sodium salt]	15	-13				
	100	C[C@H](C(=O)O)c1ccc2cc(OCc3ccc4ccccc4n3)ccc2c1 [Example 7, S-(α)-α-Methyl-6-(2-quinolinylmethoxy)-2-naphthaleneacetic acid]			100	87.5	no protection	-17
